Results as given in patent US20260108546A1 (ELI LILLY AND COMPANY, priority 2024, published 2026).

Biological target: T1, hGIP-R (Homo sapiens, UniProt P48546)
T1 construct: expressed in transfected cells; host or cells: HEK-293 clonal cell lines
T1 sequence (P48546 22-466): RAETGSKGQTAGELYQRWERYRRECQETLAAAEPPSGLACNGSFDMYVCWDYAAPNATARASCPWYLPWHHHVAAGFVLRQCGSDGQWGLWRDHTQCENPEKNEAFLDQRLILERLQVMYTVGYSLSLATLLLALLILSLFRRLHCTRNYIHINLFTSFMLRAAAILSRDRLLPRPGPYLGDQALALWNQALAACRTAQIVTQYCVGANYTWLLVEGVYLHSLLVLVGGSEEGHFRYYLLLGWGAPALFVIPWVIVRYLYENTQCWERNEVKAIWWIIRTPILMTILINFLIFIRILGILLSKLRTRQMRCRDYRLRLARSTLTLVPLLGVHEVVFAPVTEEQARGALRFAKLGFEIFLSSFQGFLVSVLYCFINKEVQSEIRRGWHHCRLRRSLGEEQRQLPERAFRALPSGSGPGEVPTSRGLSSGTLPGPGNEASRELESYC
Experiment: Functional hGIP-R Assay (cAMP formation, HTRF)
Assay type: cell-based
Settings: for Emax: cAMP efficacy, percent of maximal response to GIP(1-42)OH, 37° C., 0.1% bovine casein, arithmetic mean ± SEM; for EC50: cAMP potency, HEK-293 cells expressing hGIP-R, incubated at 37° C. in the presence of 0.1% bovine casein, geometric mean, read-out: Human GIP-R EC50, nM (SEM, n)
Method in brief: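 Relative EC50 and Emax came from four-parameter logistic fits of cAMP as a percent of the human GIP (1-42) OH maximal response. The cAMP was measured by competitive HTRF after 30 min, 37 °C compound exposure of hGIP-R HEK-293 clones in IBMX (250 μM)-containing medium.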

SMILES | Emax | EC50
CC(C)(Cc1ccc(F)cc1)NC(=O)[C@@H](Cc1cnc2ncccn12)NC(=O)[C@H]1C[C@@H]1c1ccc(-c2cnc3nccn3c2)cc1 [Example 87, (1S,2S)-N-((R)-1-((1-(4-Fluorophenyl)-2-methylpropan-2-yl)amino)-3-(imidazo[1,2-a]pyrimidin-3-yl)-1-oxopropan-2-yl)-2-(4-(imidazo[1,2-a]pyrimidin-6-yl)phenyl)cyclopropane-1-carboxamide] | 71.1 ± 9.09% | 52.7 nM
CN(C(=O)[C@H]1C[C@@H]1c1ccc(-c2cnc3nn(C(F)F)cc3c2)cc1)[C@H](Cc1cnn(C)c1)C(=O)NC(C)(C)Cn1nc(C(F)(F)F)cc1-c1ccc(=O)n(C)c1 [Example 88, (1S,2S)-2-(4-(2-(Difluoromethyl)-2H-pyrazolo[3,4-b]pyridin-5-yl)phenyl)-N-methyl-N-((R)-1-((2-methyl-1-(5-(1-methyl-6-oxo-1,6-dihydropyridin-3-yl)-3-(trifluoromethyl)-1H-pyrazol-1-yl)propan-2-yl)amino)-3-(1-methyl-1H-pyrazol-4-yl)-1-oxopropan-2-yl)cyclopropane-1-carboxamide] | 116% | 89 nM
COCc1cn2cc(-c3ccc([C@H]4C[C@@H]4C(=O)N(C)[C@H](Cc4cnn(C)c4)C(=O)NC(C)(C)Cn4nc(C(F)(F)F)cc4-c4ccc(=O)n(C)c4)cc3)cnc2n1 [Example 90, (1S,2S)-2-(4-(2-(Methoxymethyl)imidazo[1,2-a]pyrimidin-6-yl)phenyl)-N-methyl-N-((R)-1-((2-methyl-1-(5-(1-methyl-6-oxo-1,6-dihydropyridin-3-yl)-3-(trifluoromethyl)-1H-pyrazol-1-yl)propan-2-yl)amino)-3-(1-methyl-1H-pyrazol-4-yl)-1-oxopropan-2-yl)cyclopropane-1-carboxamide] | 120% | 45.5 nM
Cc1cn2cc(-c3ccc([C@H]4C[C@@H]4C(=O)N(C)[C@H](Cc4cnn(C)c4)C(=O)NC(C)(C)Cn4nc(C(F)(F)F)cc4-c4ccc(=O)n(C)c4)cc3)cnc2n1 [Example 91, (1S,2S)-N-Methyl-N-((R)-1-((2-methyl-1-(5-(1-methyl-6-oxo-1,6-dihydropyridin-3-yl)-3-(trifluoromethyl)-1H-pyrazol-1-yl)propan-2-yl)amino)-3-(1-methyl-1H-pyrazol-4-yl)-1-oxopropan-2-yl)-2-(4-(2-methylimidazo[1,2-a]pyrimidin-6-yl)phenyl)cyclopropane-1-carboxamide] | 114% | 60.9 nM
Cn1cc(C[C@@H](NC(=O)[C@H]2C[C@@H]2c2ccc(-c3cnc4nn(C)cc4c3)cc2F)C(=O)NC(C)(C)Cn2nc(C(F)(F)F)cc2-c2cn[nH]n2)cn1 [Example 93, (1S,2S)-N—((R)-1-((1-(5-(2H-1,2,3-Triazol-4-yl)-3-(trifluoromethyl)-1H-pyrazol-1-yl)-2-methylpropan-2-yl)amino)-3-(1-methyl-1H-pyrazol-4-yl)-1-oxopropan-2-yl)-2-(2-fluoro-4-(2-methyl-2H-pyrazolo[3,4-b]pyridin-5-yl)phenyl)cyclopropane-1-carboxamide] | 115 ± 1.41% | 15.3 nM
Cc1ccc2cc(-c3ccc([C@H]4C[C@@H]4C(=O)N[C@H](Cc4cnn(C)c4)C(=O)NC(C)(C)Cn4nc(C(F)(F)F)cc4-c4cn[nH]n4)cc3)cnc2n1 [Example 94, (1S,2S)-N—((R)-1-((1-(5-(2H-1,2,3-Triazol-4-yl)-3-(trifluoromethyl)-1H-pyrazol-1-yl)-2-methylpropan-2-yl)amino)-3-(1-methyl-1H-pyrazol-4-yl)-1-oxopropan-2-yl)-2-(4-(7-methyl-1,8-naphthyridin-3-yl)phenyl)cyclopropane-1-carboxamide] | 101% | 35.4 nM
Cn1cc(C[C@H](C(=O)NC(C)(C)Cn2nc(C(F)(F)F)cc2-c2cn[nH]n2)N2CC[C@@]3(C[C@@H]3c3ccc(-c4cnc5nn(C)cc5c4)cc3)C2=O)cn1 [Example 95, (R)—N-(1-(5-(2H-1,2,3-Triazol-4-yl)-3-(trifluoromethyl)-1H-pyrazol-1-yl)-2-methylpropan-2-yl)-3-(1-methyl-1H-pyrazol-4-yl)-2-((1R,3R)-1-(4-(2-methyl-2H-pyrazolo[3,4-b]pyridin-5-yl)phenyl)-4-oxo-5-azaspiro[2.4]heptan-5-yl)propanamide] | 90 ± 2.84% | 48.1 nM

The remaining lines, values ahead:

Emax | EC50 | SMILES
32.3% | 152 nM | CN(C(=O)[C@H]1C[C@@H]1c1ccc(-c2cnc3nn(C(F)(F)F)cc3c2)cc1)[C@H](Cc1cnn(C)c1)C(=O)NC(C)(C)Cn1nc(C(F)(F)F)cc1-c1ccc(=O)n(C)c1 [Example 89, (1S,2S)-N-Methyl-N-((R)-1-((2-methyl-1-(5-(1-methyl-6-oxo-1,6-dihydropyridin-3-yl)-3-(trifluoromethyl)-1H-pyrazol-1-yl)propan-2-yl)amino)-3-(1-methyl-1H-pyrazol-4-yl)-1-oxopropan-2-yl)-2-(4-(2-(trifluoromethyl)-2H-pyrazolo[3,4-b]pyridin-5-yl)phenyl)cyclopropane-1-carboxamide]
126 ± 1.93% | 47.1 nM | Cn1cc(C[C@@H](NC(=O)[C@H]2C[C@@H]2c2ccc(-c3cnc4nn(C)cc4c3)cc2)C(=O)NC(C)(C)Cn2nc(C(F)(F)F)cc2-c2cn[nH]n2)cn1 [Example 92, (1S,2S)-N—((R)-1-((1-(5-(2H-1,2,3-Triazol-4-yl)-3-(trifluoromethyl)-1H-pyrazol-1-yl)-2-methylpropan-2-yl)amino)-3-(1-methyl-1H-pyrazol-4-yl)-1-oxopropan-2-yl)-2-(4-(2-methyl-2H-pyrazolo[3,4-b]pyridin-5-yl)phenyl)cyclopropane-1-carboxamide]
104 ± 4.57% | 169 nM | Cn1cc(C[C@@H](NC(=O)[C@H]2C[C@@H]2c2ccc(-c3cnc4nn(C)cc4c3)cc2)C(=O)NC(C)(C)Cn2nc(C(F)(F)F)cc2-c2cnn3c2CNCC3)cn1 [Example 96, (1S,2S)-N—((R)-1-((2-methyl-1-(5-(4,5,6,7-tetrahydropyrazolo[1,5-a]pyrazin-3-yl)-3-(trifluoromethyl)-1H-pyrazol-1-yl)propan-2-yl)amino)-3-(1-methyl-1H-pyrazol-4-yl)-1-oxopropan-2-yl)-2-(4-(2-methyl-2H-pyrazolo[3,4-b]pyridin-5-yl)phenyl)cyclopropane-1-carboxamide]
96.6 ± 4.57% | 38.6 nM | Cn1cc(C[C@@H](NC(=O)[C@H]2C[C@@H]2c2ccc(NC(=O)Nc3ccc(F)cc3)cc2)C(=O)NC(C)(C)Cc2ccc(F)cc2)cn1 [Example 97, (1S,2S)-N—((R)-1-((1-(4-Fluorophenyl)-2-methylpropan-2-yl)amino)-3-(1-methyl-1H-pyrazol-4-yl)-1-oxopropan-2-yl)-2-(4-(3-(4-fluorophenyl)ureido)phenyl)cyclopropane-1-carboxamide]
110 ± 3.22% | 35.5 nM | Cn1cc(C[C@H](C(=O)NC(C)(C)Cn2nc(C(F)(F)F)cc2-c2ccc(=O)n(C)c2)N2CC[C@@]3(C[C@@H]3c3ccc(-c4cnc5nn(C)cc5c4)cc3)C2=O)cn1 [Example 98, (R)—N-(2-Methyl-1-(5-(1-methyl-6-oxo-1,6-dihydropyridin-3-yl)-3-(trifluoromethyl)-1H-pyrazol-1-yl)propan-2-yl)-3-(1-methyl-1H-pyrazol-4-yl)-2-((1R,3R)-1-(4-(2-methyl-2H-pyrazolo[3,4-b]pyridin-5-yl)phenyl)-4-oxo-5-azaspiro[2.4]heptan-5-yl)propanamide]
